Results from publication PMC8548882, “The Trp-rich Antimicrobial Amphiphiles With Intramolecular Aromatic Interactions for the Treatment of Bacterial Infection” (Frontiers in Microbiology, 2021).
Values after ≈ are worked out from the molar mass of the structure shown. Like-named read-outs stand apart in the source and are kept apart here. Ends that are not written are not given here.

Assays:
S.typhimurium 7731 = assay type: cell-based, Salmonella enterica serovar typhimurium C77-31
Excerpt: (§1) The tested strains were kindly provided by the laboratory of Veterinary Microbiology and Immunology, the College of Veterinary Medicine, Northeast Agricultural University (gram-negative bacteria, Salmonella enterica serovar typhimurium C77-31, Salmonella typhimurium ATCC 14028, Escherichia coli ATCC 25922, Pseudomonas aeruginosa ATCC 27853 and gram-positive bacteria, Staphylococcus aureus ATCC 29213, Staphylococcus aureus ATCC 43300, Staphylococcus epidermidis ATCC 12228, Staphylococcus aureus ATCC 25923).

S.typhimurium 14028 = assay type: cell-based, Salmonella typhimurium ATCC 14028
Excerpt: as §1

E. coli 25922 = assay type: cell-based, Escherichia coli ATCC 25922
Excerpt: as §1

P.aeruginosa 27853 = assay type: cell-based, Pseudomonas aeruginosa ATCC 27853
Excerpt: as §1
(§2) The famous microtiter dilution, National Committee for Clinical Laboratory Standards, was adopted to measure the antimicrobial ability of the engineering peptides ([Chou et al., 2016]). In brief, the 50μl with serial dilution was incubated with the same volume bacteria (1×10^5CFU/ml in midi-logarithmic phase) in a 96-well plate 18–24h at 37°C. The positive control was the bacteria treated with culture medium and the negative control was merely culture medium. The MICs (minimum inhibitory concentrations) were defined as the lowest concentration of peptides that prevented the production of visible turbidity ([Tossi et al., 2000]).

S.aureus 29213 = assay type: cell-based, Staphylococcus aureus ATCC 29213
Excerpt: as §1, §2

S.epidermidis 12228 = assay type: cell-based, Staphylococcus epidermidis ATCC 12228
Excerpt: as §1

S.aureus 25923 = assay type: cell-based, Staphylococcus aureus ATCC 25923
Excerpt: as §1, §2

MRSA 43300 = assay type: cell-based, Staphylococcus aureus ATCC 43300; details: microtiter dilution, 1×10^5CFU/ml, 18–24h at 37°C, visible turbidity
Excerpt: as §1, §2

[1] = system: panel of gram-negative and gram-positive bacteria; details: over the eight strains of Table 2
Method: as §2

[2] = system: human red blood cells (hRBCs); test: Hemolytic activity; assay type: cell-based; details: for HC5 (MHC), lowest concentration that caused 5% hemolysis: hRBC in PBS pH 7.2, 1h at 37°C, absorbance 570nm, vs 0.1% Triton X-100, highest test concentration 128μM; for Therapeutic index (TI): hRBC, ratio of MHC to GM
Excerpt: The hemolytic activity of peptides was reflected by the releasing amount of hemoglobin from erythrocytes lysis induced by peptides ([Dong et al., 2014a]). The informed consent was obtained from the volunteers (3 healthy 25-year-old male volunteers) before the experiment. In brief, the human red blood cells (hRBCs), donated by volunteer, were collected, washed, and resuspended in PBS at pH 7.2. The peptides were serially diluted in PBS at different concentrations in a 96-well cell cultures plate and incubated with 50μl hRBCs for 1h at 37°C. The 0.1% Trition X-100 was selected as the treatment of positive control and the negative control was the hRBCs treated with PBS. After 1h incubation, the supernatant, obtained by centrifuging the plate 1,000g for 5min, was transferred to a brand-new plate for absorbance detection at 570nm. The releasing amount of hemoglobin was converted to the percent hemolysis against to 0.1% Triton X-100 treatment. The lowest concentration caused 5% hemolysis of hRBCs and was defined as the lowest hemolytic concentration of antimicrobial peptide.

IPEC-J2 cells = assay type: cell-based, porcine; details: for Therapeutic index (TI): IPEC-J2, ratio of IC50 to GM
Method: (§3) The MTT (3-[4,5 dimethylthiozol-2-yl]-2,5-diphenylterazoliumbromide) dye was selected to analyze the cytotoxicity of peptides against the murine macrophage cell RAW 264.7 (National Collection of Authenticated Cell Cultures, Shanghai, China), human embryonic kidneys (HK293T), and the porcine intestinal epithelial cells (IPEC-J2) as in our previously study ([Li et al., 2020]). In short, the cells (10^4 cells/well) were seeded into 96-well plates and were cultivated overnight. Then the peptides with different final concentration (2μM, 4μM, 8μM, 16μM, 32μM, 64μM, and 128μM) were introduced into the plate and challenged with cells for 24h. After overnight incubation, the 50μl MTT (0.5mg/ml) was added into the cell cultures for 4h. Then the plate was centrifuged to discard the supernatants and obtain the formazan crystals. The DMSO (dimethyl sulfoxide) was employed as a solvent to dissolve the formazan crystals on the bottom of the plate and the optical density was read at 492nm with a microplate reader.

HEK 293T cells = assay type: cell-based, human; details: ratio of IC50 to GM
Method: as §3

RAW 264.7 cells = assay type: cell-based, murine; details: RAW264.7; ratio of IC50 to GM
Method: as §3

[3] = system: hRBC, IPEC-J2, HEK 293T, RAW264.7
Method: Besides, the therapeutic index of peptide in the mammalian eukaryotic cell (RAW 264.7, HEK 293T, and IPEC J2) was also calculated to study the biocompatibility of peptides.

[4] = system: Pseudomonas aeruginosa ATCC 27853; test: Subcutaneous abscess model; details: 5mg/kg
[5] = microtiter dilution, 1×10^5CFU/ml, 18–24h at 37°C, visible turbidity

| Compound | MIC (S.typhimurium 7731) | MIC (S.typhimurium 14028) | MIC (E. coli 25922) | MIC (P.aeruginosa 27853; 27853) | MIC (S.aureus 29213; 29213) | MIC (S.epidermidis 12228) | MIC (S.aureus 25923; 25923) | MIC (MRSA 43300) | GMMIC, geometric mean of the MICs [1] | HC5 (MHC), lowest concentration that caused 5% hemolysis [2] | Therapeutic index (TI) [2] | Therapeutic index (TI) (IPEC-J2 cells) | Therapeutic index (TI) (HEK 293T cells) | Therapeutic index (TI) (RAW 264.7 cells) | GMTI, geometric mean of TI of various cell lines [3] | other results |
| --- | --- | --- | --- | --- | --- | --- | --- | --- | --- | --- | --- | --- | --- | --- | --- | --- |
| VKKWVKKWVKKWVKKA-NH2 [VW4] | 2 µM | 4 µM | 4 µM | 2 µM | 4 µM | 4 µM | 4 µM | 4 µM | 3.36 µM | >128 µM | > 38.1 | 1855.95 | 2751.71 | 1855.65 | >775.15 | – |
| VKKLVKKLVKKAVKKL-NH2 [VL4] | 16 µM | 32 µM | 16 µM | 8 µM | 16 µM | 32 µM | 16 µM | – | – | – | – | – | – | – | >104.47 | – |
| CC[C@H](C)[C@H](NC(=O)CN)C(=O)NCC(=O)N[C@@H](C)C(=O)N[C@H](C(=O)N[C@@H](CC(C)C)C(=O)N[C@@H](CCCCN)C(=O)N[C@H](C(=O)N[C@@H](CC(C)C)C(=O)N[C@H](C(=O)N[C@H](C(=O)NCC(=O)N[C@@H](CC(C)C)C(=O)N1CCC[C@H]1C(=O)N[C@@H](C)C(=O)N[C@@H](CC(C)C)C(=O)N[C@H](C(=O)N[C@@H](CO)C(=O)N[C@@H](Cc1c[nH]c2ccccc12)C(=O)N[C@H](C(=O)N[C@@H](CCCCN)C(=O)N[C@@H](CCCNC(=N)N)C(=O)N[C@@H](CCCCN)C(=O)N[C@@H](CCCNC(=N)N)C(=O)N[C@@H](CCC(N)=O)C(=O)N[C@@H](CCC(N)=O)C(N)=O)[C@@H](C)CC)[C@@H](C)CC)[C@@H](C)O)[C@@H](C)O)C(C)C)C(C)C [Melittin, reference compound] | – | – | – | – | – | – | – | 4 µM (≈ 11.4 µg/mL) | 1.68 µM | – | – | – | – | – | – | MIC (P.aeruginosa 27853; [5]): 2 µM (≈ 5.69 µg/mL); MIC (S.aureus 29213; [5]): 4 µM (≈ 11.4 µg/mL); MIC (S.aureus 25923; [5]): 2 µM (≈ 5.69 µg/mL); cell viability (IPEC-J2 cells; IPEC J2, MTT, 24h, 32μM): below 5%; IC50 (IPEC-J2 cells; IPEC-J2, MTT, 24h, tested 2–128μM): 3.34 µM; GMTI, geometric mean of TI of various cell lines ([3]; hRBC, IPEC-J2, HEK 293T, RAW264.7): 1.71 |
| VKKLVKKLVKKAVKKA-NH2 [VL2] | >64 µM | >64 µM | >64 µM | 64 µM | >64 µM | >64 µM | >64 µM | >64 µM | 117.38 µM | >128 µM | >1.09 | 87.76 | 71.65 | 64.03 | >25.74 | – |
| VKKWVKKWVKKAVKKA-NH2 [VW2] | 64 µM | 64 µM | 8 µM | 8 µM | 64 µM | 64 µM | 64 µM | 64 µM | 41.50 µM | >128 µM | > 3.08 | 136.45 | 144.05 | 136.50 | >53.63 | – |
| O=C(O)c1cn(C2CC2)c2cc(N3CCNCC3)c(F)cc2c1=O [ciprofloxacin, reference compound] | – | – | – | – | – | – | – | – | – | – | – | – | – | – | – | IL-1β in serum ([4]; Day 3, ELISA, saline 95.99±4.31): 72.18 ± 3.54 pg/mL; IL-1α in serum ([4]; Day 3, ELISA, saline 99.95±4.71): 80.08 ± 4.04 pg/mL; TNF-α in serum ([4]; Day 3, ELISA, saline 1020.654±51.08): 773.35 ± 40.55 pg/mL; IL-2 in serum ([4]; Day 3, ELISA, saline 1492.65±48.11): 1250.826 ± 43.60 pg/mL; histological examination of abscess lesion, dermal tissue structures ([4]; HE staining, Day 3): relative integrity |
| VKKLVKKLVKKLVKKA-NH2 [VL3] | 32 µM | 32 µM | 16 µM | 8 µM | 16 µM | 32 µM | 32 µM | – | – | – | – | – | – | – | >122.44 | – |
| VKKWVKKAVKKWVKKA-NH2 [VW1] | >64 µM | 64 µM | 64 µM | 32 µM | 64 µM | 64 µM | >64 µM | >64 µM | 76.11 µM | >128 µM | > 1.68 | 120.77 | 86.82 | 87.91 | >35.28 | – |
| VKKLVKKLVKKLVKKL-NH2 [VL5] | 2 µM | 4 µM | 8 µM | 2 µM | 8 µM | 4 µM | 8 µM | 8 µM | 4.76 µM | >128 µM | > 26.89 | 957.83 | 1574.26 | 404.20 | >357.80 | TI (hRBC) fold smaller than VW5 [2]: about 2.8 fold |
| VKKWVKKWVKKAVKKW-NH2 [VW3] | 8 µM | 8 µM | 4 µM | 4 µM | 16 µM | 8 µM | 8 µM | 8 µM | 7.34 µM | >128 µM | > 17.44 | 646.97 | 1449.42 | 647.10 | >320.73 | – |
